Source: patent US12364673B2, “Methods and compositions for treating lysosomal storage disorders: ambroxol as treatment agent for Mucopolysaccharidoses III (Sanfilippo syndrome)” (Lysosomal and Rare Disorders Research and Treatment Center, …, priority 2019, dated 2025)

Experiments:
[1] = system: N-acetyl-alpha-glucosaminidase (NAGLU); experiment: NAGLU enzyme activity in patient-derived PBMC; assay type: cell-based, human; conditions: PBMC from MPS III Type B patient, 5 days incubation
Method: PBMC were cultured for 5 days with an increasing concentration of ambroxol. […] We measured enzyme activity in PBMC (peripheral blood mononuclear cell) derived from MPS III Type B patients with NAGLU enzyme deficiency. After incubation for five days in the presence of 1, 10, and 100 μM of ambroxol, NAGLU enzyme activity was measured and compared negative control versus ambroxol incubated cells (FIG. 1). […] PBMC were cultured for 5 days with an increasing concentration of ambroxol.

PBMC [2] = experiment: Cell viability of ambroxol incubated PBMC; assay type: cell-based, human; conditions: 100 μM ambroxol
PBMC [3] = experiment: ATP production of ambroxol incubated PBMC; assay type: cell-based, human; conditions: 100 μM ambroxol
[4] = system: heparan-alpha-glucosaminide N-acetyltransferase (HGSNAT); experiment: HGSNAT enzyme activity in PBMC; assay type: cell-based, human
Method: PBMC were cultured for 5 days with an increasing concentration of ambroxol.
HGSNAT enzyme activity was measured and compared as negative control versus ambroxol incubated PBMC derived from a patient with MPS III Type C (FIG. 2).

[5] = system: autophagy fusion with the lysosome; experiment: Autophagy fusion staining with DALGreen detection reagent; assay type: cell-based, human
acidic lysosomes = experiment: Lysosome staining with LysoTracker Red DND-99 dye; assay type: cell-based, human
Method: To examine the effects of ambroxol on autophagy-lysosomal pathway, the autophagy dye […] and lysosome marker LysoTracker Red were used. […] The autophagy fusion was studied using autophagy detection reagent […] fluorescence probe stained autophagosome on late-phase autophagy when autophagosome fused with a lysosome. Lysosome organelles were analyzed using LysoTracker Red DND-99 red-fluorescent dye which stained acidic organelles in live cells. PBMC were isolated from the patient with MPS III-B disease, incubated five days with ambroxol, and then were stained. […] Macrophages derived from a patient with MPS III Type C.

heparan sulfate (HS) = experiment: Heparan sulfate ELISA in PBMC cell extracts; assay type: cell-based, human
Method: To investigate the effect of ambroxol on HS degradation, the heparin sulfate ELISA assay (Aviva Systems Siology) was assessed. PBMC derived from healthy controls and MPS III patients were incubated with a concentration of ambroxol 1, 10 and 100 μM. PBMC after five days of incubation were collected and heparan sulfate levels were measured in cells extracts.

[6] = target: T1, glucocerebrosidase (GCase) (Homo sapiens, UniProt P04062); conditions: pH 4.3, near lysosomal pH; cited from earlier work
T1 sequence (P04062 40-536): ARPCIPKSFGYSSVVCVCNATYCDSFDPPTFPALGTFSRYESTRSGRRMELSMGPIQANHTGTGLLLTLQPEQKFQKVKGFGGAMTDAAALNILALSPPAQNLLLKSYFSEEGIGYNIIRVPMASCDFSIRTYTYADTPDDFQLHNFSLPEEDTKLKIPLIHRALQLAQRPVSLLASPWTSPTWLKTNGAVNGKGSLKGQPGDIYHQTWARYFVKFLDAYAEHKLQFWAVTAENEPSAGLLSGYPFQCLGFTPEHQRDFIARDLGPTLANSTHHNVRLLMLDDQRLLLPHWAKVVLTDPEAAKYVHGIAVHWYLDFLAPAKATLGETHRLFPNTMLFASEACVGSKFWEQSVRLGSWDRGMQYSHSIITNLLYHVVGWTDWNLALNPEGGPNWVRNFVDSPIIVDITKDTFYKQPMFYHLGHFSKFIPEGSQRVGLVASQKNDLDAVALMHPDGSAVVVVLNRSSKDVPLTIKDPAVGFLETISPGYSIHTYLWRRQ

[7] = system: lysosomal integral membrane protein-2 (LIMP-2); conditions: cited from earlier work
[8] = PBMC from patient with MPS III-B, five days with ambroxol
[9] = macrophages from patient with MPS III Type C, 5 days with ambroxol

- ATP production (PBMC [3]): inhibition
Compound: Nc1c(Br)cc(Br)cc1CN[C@H]1CC[C@H](O)CC1 [ambroxol, trans-4-(2-Amino-3,5-dibromobenzylamino)-cyclohexanol]
- NAGLU enzyme activity increase vs negative control ([1]; 1 μM ambroxol): 15%
- NAGLU enzyme activity increase vs negative control ([1]; 10 μM ambroxol): 15%
- NAGLU activity ([1]; 100 μM ambroxol): Decreasing
- cell viability (PBMC [2]): decreasing
- HGSNAT activity ([4]; PBMC from a healthy subject, ambroxol incubation (data not shown)): no increase
- HGSNAT activity ([4]; PBMC from a patient with MPS III Type C, 5 days ambroxol incubation): no increase
- autophagy fusion (DALGreen staining) ([5]; PBMC from healthy control, five days with ambroxol): significant increase
- activity of autophagy fusion (DALGreen staining) [5, 8]: increasing
- autophagy fusion (DALGreen staining) ([5]; PBMC from two patients with MPS III-D, five days with ambroxol): significant increase
- activity of autophagy fusion (DALGreen staining) [5, 9]: increasing
- proportion of acidic lysosomes (LysoTracker Red staining) (acidic lysosomes; [8]): significant increasing
- lysosome function (acidic lysosomes; cells derived from healthy controls and MPS III-B, MPS III-C and MPS III-D patients (summary)): activates
- proportion of acidic lysosomes (LysoTracker Red staining) (acidic lysosomes; [9]): significant increasing
- heparan sulfate (HS) level (heparan sulfate (HS); PBMC from MPS III-A patient, 5 days with ambroxol, vs negative control): decreased
- heparan sulfate (HS) level (heparan sulfate (HS); PBMC from MPS III-B patient, 5 days, 10 μM ambroxol): decreased
- heparan sulfate (HS) level (heparan sulfate (HS); PBMC from MPS III-B patient, 5 days, 100 μM ambroxol): decreased
- heparan sulfate (HS) level (heparan sulfate (HS); PBMC from MPS III-C patient, 5 days with ambroxol, vs negative control): decreasing
- heparan sulfate (HS) level (heparan sulfate (HS); PBMC from MPS III-D patient, 5 days, 10 μM ambroxol): decreased
- heparan sulfate (HS) level (heparan sulfate (HS); PBMC from MPS III-D patient, 5 days, 100 μM ambroxol): decreased
- heparan sulfate (HS) level (heparan sulfate (HS); PBMC from healthy controls (n=4), 5 days with ambroxol, vs negative control): decreased
- effect on GCase enzyme [6]: activator
- LIMP-2 level [7]: increased
